Assay results reported in ChEMBL document CHEMBL3885861, “Open TG-GATES”.

Organism: Rattus norvegicus
Experiment: Open TG-GATES - Regimen: Single
Assay type: toxicity, organism-based, Sprague-Dawley
Set-up: regimen Single, gender Male, age 6 weeks
Conditions: in vivo, iv, 0 mg/kg, route intravenous injection, dose level Control; for Bas / Eos / Fbg / Ht / Lym / MCH / MCHC / MCV / Mono / PT / Plat / RBC / Ret / Neu: tissue Blood; for KIDNEY_L / KIDNEY_R / KIDNEY_TOTAL: tissue Kidney; for LIVER: tissue Liver

COc1cccc2c1C(=O)c1c(O)c3c(c(O)c1C2=O)C[C@@](O)(C(=O)CO)C[C@@H]3O[C@H]1C[C@H](N)[C@H](O)[C@H](C)O1 [DOXORUBICIN]
TERMINAL_BW (3 h): 210.4 g
Bas (3 h): 0%
Eos (3 h): 0.8%
Fbg (3 h): 277.8 mg/dL
Ht (3 h): 39.4%
Lym (3 h): 84.4%
MCH (3 h): 22 pg
MCHC (3 h): 34.9%
MCV (3 h): 63.1 fL
Mono (3 h): 2.6%
PT (3 h): 16.3 s
Plat (3 h): 122.6 x10_4/uL
RBC (3 h): 625 x10_4/ul
Ret (3 h): 6.3%
KIDNEY_L (3 h): 0.9 g
KIDNEY_R (3 h): 0.9 g
KIDNEY_TOTAL (3 h): 1.8 g
LIVER (3 h): 9.4 g
ALP (3 h, tissue Plasma): 1425.2 IU/L
ALT (3 h, tissue Plasma): 43.6 IU/L
AST (3 h, tissue Plasma): 77 IU/L
CRE (3 h, tissue Plasma): 0.2 mg/dL
DBIL (3 h, tissue Plasma): 0 mg/dL
GLC (3 h, tissue Plasma): 181.8 mg/dL
K (3 h, tissue Plasma): 4.5 meq/L
LDH (3 h, tissue Plasma): 185.6 IU/L
Na (3 h, tissue Plasma): 142.2 meq/L
RALB (3 h, tissue Plasma): 3 g/dL
TBIL (3 h, tissue Plasma): 0.008 mg/dL
TC (3 h, tissue Plasma): 77.6 mg/dL
TG (3 h, tissue Plasma): 87.2 mg/dL
TP (3 h, tissue Plasma): 5.2 g/dL
gamma-GTP (3 h, tissue Plasma): 1.2 IU/L
TERMINAL_BW (6 h): 211.5 g
Bas (6 h): 0%
Eos (6 h): 0.8%
Fbg (6 h): 292.4 mg/dL
Ht (6 h): 38.3%
Lym (6 h): 76%
MCH (6 h): 21.5 pg
MCHC (6 h): 34.4%
MCV (6 h): 62.4 fL
Mono (6 h): 2.8%
Neu (6 h): 19.2%
PT (6 h): 16.3 s
Plat (6 h): 127.3 x10_4/uL
RBC (6 h): 614.6 x10_4/ul
Ret (6 h): 6.9%
KIDNEY_L (6 h): 0.9 g
KIDNEY_R (6 h): 0.9 g
KIDNEY_TOTAL (6 h): 1.8 g
LIVER (6 h): 8.9 g
ALP (6 h, tissue Plasma): 1252 IU/L
ALT (6 h, tissue Plasma): 46.6 IU/L
AST (6 h, tissue Plasma): 90.2 IU/L
CRE (6 h, tissue Plasma): 0.2 mg/dL
DBIL (6 h, tissue Plasma): 0.004 mg/dL
GLC (6 h, tissue Plasma): 172.2 mg/dL
K (6 h, tissue Plasma): 4.3 meq/L
Na (6 h, tissue Plasma): 140.6 meq/L
RALB (6 h, tissue Plasma): 2.9 g/dL
TBIL (6 h, tissue Plasma): 0.026 mg/dL
TC (6 h, tissue Plasma): 71.8 mg/dL
TG (6 h, tissue Plasma): 63 mg/dL
TP (6 h, tissue Plasma): 5.1 g/dL
gamma-GTP (6 h, tissue Plasma): 1.6 IU/L
TERMINAL_BW (9 h): 208 g
Bas (9 h): 0%
Eos (9 h): 0.6%
Fbg (9 h): 298.2 mg/dL
Ht (9 h): 38.9%
Lym (9 h): 77.8%
MCH (9 h): 21.6 pg
MCHC (9 h): 34.2%
MCV (9 h): 63.2 fL
Mono (9 h): 2.8%
PT (9 h): 16.4 s
Plat (9 h): 116.3 x10_4/uL
RBC (9 h): 615.4 x10_4/ul
Ret (9 h): 6.5%
KIDNEY_L (9 h): 0.9 g
KIDNEY_R (9 h): 1 g
KIDNEY_TOTAL (9 h): 1.9 g
LIVER (9 h): 8.6 g
ALP (9 h, tissue Plasma): 1422.6 IU/L
ALT (9 h, tissue Plasma): 39.8 IU/L
AST (9 h, tissue Plasma): 77.6 IU/L
CRE (9 h, tissue Plasma): 0.2 mg/dL
DBIL (9 h, tissue Plasma): 0 mg/dL
GLC (9 h, tissue Plasma): 201.8 mg/dL
K (9 h, tissue Plasma): 4.3 meq/L
Na (9 h, tissue Plasma): 140.2 meq/L
RALB (9 h, tissue Plasma): 2.9 g/dL
TBIL (9 h, tissue Plasma): 0.01 mg/dL
TC (9 h, tissue Plasma): 63 mg/dL
TG (9 h, tissue Plasma): 65.6 mg/dL
TP (9 h, tissue Plasma): 5.3 g/dL
gamma-GTP (9 h, tissue Plasma): 1.4 IU/L
TERMINAL_BW (24 h): 223.8 g
Bas (24 h): 0%
Eos (24 h): 1%
Fbg (24 h): 298 mg/dL
Ht (24 h): 37.5%
Lym (24 h): 77.6%
MCH (24 h): 22.4 pg
MCHC (24 h): 36%
MCV (24 h): 62.2 fL
Mono (24 h): 4%
Neu (24 h): 16.4%
PT (24 h): 16.4 s
Plat (24 h): 117.3 x10_4/uL
RBC (24 h): 602.6 x10_4/ul
Ret (24 h): 7%
KIDNEY_L (24 h): 0.9 g
KIDNEY_R (24 h): 1 g
KIDNEY_TOTAL (24 h): 1.9 g
ALP (24 h, tissue Plasma): 1402 IU/L
ALT (24 h, tissue Plasma): 41 IU/L
AST (24 h, tissue Plasma): 68 IU/L
CRE (24 h, tissue Plasma): 0.2 mg/dL
DBIL (24 h, tissue Plasma): 0.002 mg/dL
GLC (24 h, tissue Plasma): 191.2 mg/dL
K (24 h, tissue Plasma): 4.5 meq/L
Na (24 h, tissue Plasma): 141.6 meq/L
RALB (24 h, tissue Plasma): 3.1 g/dL
TBIL (24 h, tissue Plasma): 0.014 mg/dL
TC (24 h, tissue Plasma): 77.6 mg/dL
TG (24 h, tissue Plasma): 113 mg/dL
TP (24 h, tissue Plasma): 5.5 g/dL
gamma-GTP (24 h, tissue Plasma): 1.4 IU/L
